The target in test [1] is T1, microsomal triglyceride transfer protein (MTP) (Mesocricetus auratus, UniProt P55158).
T1 construct: The supernatant comprising the soluble MTP is dialysed against Tris/HCl 150 mM; from tissue; host or cells: golden hamster liver microsomes, deoxycholate-solubilised supernatant, dialysed
T1 sequence (P55158 19-895): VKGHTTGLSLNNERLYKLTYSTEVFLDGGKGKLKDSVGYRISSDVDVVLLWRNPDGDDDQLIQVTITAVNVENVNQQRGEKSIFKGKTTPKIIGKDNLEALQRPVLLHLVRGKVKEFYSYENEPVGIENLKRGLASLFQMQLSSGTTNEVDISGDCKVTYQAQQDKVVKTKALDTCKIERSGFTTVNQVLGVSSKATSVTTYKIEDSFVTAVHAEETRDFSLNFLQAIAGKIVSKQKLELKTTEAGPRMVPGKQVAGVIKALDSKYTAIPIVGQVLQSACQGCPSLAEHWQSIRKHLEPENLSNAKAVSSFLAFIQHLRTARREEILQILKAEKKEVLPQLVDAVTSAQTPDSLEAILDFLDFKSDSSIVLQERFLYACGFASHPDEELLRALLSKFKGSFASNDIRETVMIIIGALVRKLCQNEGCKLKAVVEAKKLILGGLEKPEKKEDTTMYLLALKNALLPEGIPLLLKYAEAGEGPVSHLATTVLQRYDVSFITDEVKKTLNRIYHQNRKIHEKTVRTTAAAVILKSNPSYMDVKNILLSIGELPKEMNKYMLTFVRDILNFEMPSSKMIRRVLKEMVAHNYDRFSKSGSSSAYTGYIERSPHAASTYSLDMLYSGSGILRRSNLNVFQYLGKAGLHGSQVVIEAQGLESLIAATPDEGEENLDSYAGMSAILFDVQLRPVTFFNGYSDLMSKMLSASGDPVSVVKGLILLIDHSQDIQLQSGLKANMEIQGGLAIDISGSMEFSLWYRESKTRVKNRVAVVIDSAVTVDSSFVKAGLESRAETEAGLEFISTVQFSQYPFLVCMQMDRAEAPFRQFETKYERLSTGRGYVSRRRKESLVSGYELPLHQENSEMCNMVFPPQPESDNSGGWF
In words: Inhibition of MTP activity: transfer of [3H]-triolein from donor liposomes to biotinylated LDL, SPA. In kind it is biochemical. To be noted: MTP from golden hamster liver; incubation 18-24 hours at 37° C.; read-out: IC50, concentration that allows a 50% inhibition of MTP. In outline: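 Soluble MTP was extracted with deoxycholate from golden hamster liver microsomes. It was incubated with [3H]-triolein/phosphatidylcholine donor liposomes, biotinylated LDL acceptors and compound in DMSO in HEPES/NaCl/BSA buffer, pH 7.4, for 18-24 h at 37° C. Transfer was read with streptavidin SPA beads, and IC50 was taken as 50% inhibition of transfer.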

For test [2], the system named is apo B secretion in HepG2 cells. The test can be described thus: Secretion of apo B in the HepG2 human cell line (sandwich-ELISA). The class given is cell-based. Particulars: 24 hours incubation, culture supernatant, read-out: IC50, concentration that produces a 50% inhibition of apo B secretion in the HepG2 cells. As for the experimental part:
Analysis of the Secretion of apo B in the HepG2 Human Cell Line:
The activity of a compound according to the invention can be evaluated by measuring the inhibition of apo B secretion in HepG2 cells.
The HepG2 cells (ECACC—No. 85011430) are used as model in the study of the in vitro hepatic secretion of lipoproteins (Dixon J. and Ginsberg H., J., Lipid. Res., 1993, 34, 167-179).
The HepG2 cells are cultured in Dulbecco's modified Eagle's medium comprising 10% foetal calf serum (DMEM and FBS—Gibco) in 96-well plates under an atmosphere of 5% carbon dioxide for 24 hours (about 70% confluence).
The test compounds are dissolved at a concentration of 2 or 10 mM in dimethyl sulfoxide (DMSO). Serial dilutions (1:3.16) are made in DMSO and are added (1:200—Robot Multimek Beckman) to the growth medium (200 μL) and then finally incubated for 24 hours in the various wells containing the HepG2 cells.
The 24-hour culture supernatant diluted to 1:5 (phosphate-buffered saline:PBS comprising 1% bovine serum albumin) is tested according to a sandwich-ELISA method specific for human apo B.
The results are expressed in terms of IC50, i.e. the concentration that produces a 50% inhibition of apo B secretion in the HepG2 cells.
For orientation: ELISA stands for enzyme-linked immunosorbent assay.

As for `COc1ccc(C(=O)N2CCC(Oc3cccc(NC(=O)c4cccc(C)c4-c4ccc(OC(F)(F)F)cc4)c3)CC2)cc1` [Example 98, N-[3-[[1-(4-methoxybenzoyl)-4-piperidin-yl]oxy]phenyl]-6-methyl-4′-(trifluorometh-oxy)[1,1′-biphenyl]-2-carboxamide], the values for the IC50 in test [1] and in test [2] were 0.101 µM and 0.0671 µM, respectively.

With `Cc1cccc(C(=O)Nc2cccc(OC3CCN(S(=O)(=O)c4ccccc4)CC3)c2)c1-c1ccc(OC(F)(F)F)cc1` [Example 15, 6-methyl-N-[3-[[1-(phenylsulfonyl)-4-piperidinyl]oxy]phenyl]-4′-(trifluoro-methoxy)[1,1′-biphenyl]-2-carboxamide], the IC50 in test [1] worked out at 0.0556 µM; in test [2], 0.0282 µM.

For the molecule `Cc1cccc(C(=O)Nc2cccc(OC3CCN(C(=O)c4ccno4)CC3)c2)c1-c1ccc(OC(F)(F)F)cc1` [Example 100, N-[3-[[1-(5-isoxazolylcarbonyl)-4-piperi-dinyl]oxy]phenyl]-6-methyl-4′-(trifluoro-methoxy)[1,1′-biphenyl]-2-carboxamide], the IC50 in test [1] stood at 0.139 µM; in test [2], 0.0541 µM.

With `COC(=O)c1ccccc1NC(=O)N1CCC(Oc2cccc(NC(=O)c3cccc(C)c3-c3ccc(OC(F)(F)F)cc3)c2)CC1` [Example 36, methyl 2-[[[4-[3-[[[6-methyl-4′-(trifluoro-methoxy)[1,1′-biphenyl]-2-yl]carbonyl]-amino]phenoxy]-1-piperidinyl]carbonyl]-amino]benzoate], the IC50 in test [1] amounted to 0.0513 µM; in test [2] it was 0.0678 µM.

Consider `CCCCS(=O)(=O)N1CCC(Oc2cccc(NC(=O)c3cccc(C)c3-c3ccc(OC(F)(F)F)cc3)c2)CC1` [Example 22], for which the figures for the IC50 in test [1] and in test [2] were 0.045 µM and 0.0127 µM, respectively.

Regarding `CSC(=O)N1CCC(Oc2cccc(NC(=O)c3cccc(C)c3-c3ccc(OC(F)(F)F)cc3)c2)CC1` [Example 10], the IC50 in test [1] is 0.0392 µM; in test [2], 0.0122 µM.

With `Cc1cccc(C(=O)Nc2cccc(OC3CCN(C(=O)C(C)C)CC3)c2)c1-c1ccc(OC(F)(F)F)cc1` [Example 142, 6-methyl-N-[3-[[1-(2-methyl-1-oxopropyl)-4-piperidinyl]oxy]phenyl]-4′-(trifluorometh-oxy)[1,1′-biphenyl]-2-carboxamide], the IC50 in test [1] amounted to 0.166 µM; in test [2], 0.0728 µM.

These data come from patent US7723358B2, “Aroyl-O-piperidine derivatives for the treatment of diabetes-related problems” (Merck Patent GmbH, priority 2004, dated 2010).
